Experimental data taken from ChEMBL document CHEMBL1131998, “Synthesis and biological evaluation of 1,1-difluoro-2-(tetrahydro-3-furanyl)ethylphosphonic acids possessing a N9-purinylmethyl functional group at the ring. a new class of inhibitors for purine nucleoside phosphorylases” (Bioorg Med Chem Lett, 1999).

What was measured:
[1] = biological target: T1, Purine nucleoside phosphorylase (Homo sapiens, UniProt P00491); test: (§1) Compound was evaluated for inhibition of PNP-catalyzed inosine phosphorylation in human erythrocyte; type: functional
T1 sequence (P00491 whole entry): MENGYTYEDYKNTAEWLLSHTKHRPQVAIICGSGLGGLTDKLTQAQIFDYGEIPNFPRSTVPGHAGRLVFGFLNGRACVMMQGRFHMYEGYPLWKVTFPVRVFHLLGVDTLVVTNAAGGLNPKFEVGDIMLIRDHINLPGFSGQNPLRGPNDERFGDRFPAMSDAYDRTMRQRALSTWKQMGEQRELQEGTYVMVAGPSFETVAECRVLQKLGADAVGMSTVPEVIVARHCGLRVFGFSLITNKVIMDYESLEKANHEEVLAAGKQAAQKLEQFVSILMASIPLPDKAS

[2] = biological target: T1, Purine nucleoside phosphorylase; test: as §1

| SMILES | IC50 [1] [nM] | Ki [2] [nM] |
| --- | --- | --- |
| Nc1nc2c(ncn2CCCCC(F)(F)P(=O)(O)O)c(=O)[nH]1 | 380 | 53 |
| O=c1[nH]cnc2c1ncn2CC[C@@H]1C[C@H]1C(F)(F)P(=O)(O)O | 340 | 8.8 |
| O=P(O)(O)C(F)(F)C[C@H]1COC[C@H]1Cn1cnc2c(O)ncnc21 | 88 | 15.2 |
| O=P(O)(O)C(F)(F)C[C@H]1COC[C@@H]1Cn1cnc2c(O)ncnc21 | 320 |  |
| Nc1nc2c(ncn2CC[C@@H]2C[C@H]2C(F)(F)P(=O)(O)O)c(=O)[nH]1 (racemic) | 330 | 28.2 |
